The record followed here is patent US9549911B2, “Ginger metabolites and uses thereof” (North Carolina A&T State University, priority 2012, dated 2017).

The subject of series [1] is HCT-116 cells. Kind of series: Measurement of reactive oxygen species (DCFH-DA). It is filed as cell-based, human. The settings on record: HCT-116, 40 μM, after two hours. An excerpt: The assay employed the cell-permeable fluorogenic probe 2′,7′-dichlorodihydrofluorescin diacetate [DCFH-DA] (Sigma Aldrich, St. […] In brief, DCFH-DA is diffused into cells and is deacetylated by cellular esterases to non-fluorescent 2′,7′-dichlorodihydrofluorescin (DCFH), which is rapidly oxidized to highly fluorescent 2′,7′-dichlorodihydrofluorescein (DCF) by intracellular hydrogen peroxide, or other low molecular weight peroxides. Measured fluorescence intensity is thus proportional to the amount of such peroxides in the cell at a given time. Human colon cancer cells HCT-116 or HT-29 were seeded in 96-well black-sided, clear-bottomed culture plates, with 5000 cells/well and were allowed to adhere for 24 hours in a 37° C. incubator with 5% CO2. […] After desired incubation times of 0, 2, 4, 8, or 24 hours, media and test compounds were aspirated. Cells were washed three times with 200 μL PBS before addition of 100 μL 1 mM DCF-DA. The fluorogenic probe permeated cell membranes and was processed to DCF for one hour at 37° C. After incubation, plates were immediately placed in a Biotek microplate reader to measure fluorescence at wavelengths of 485 (excitation) and 528 (emission). Raw values were normalized to DMSO control for each time point and are presented as fold induction versus 0 hour time point (n=3).

Series [2] in a line: Kinetic study of [6]-shogaol metabolism to M6 in liver microsomes. The settings on record: human liver microsomes 0.1 mg/mL, 30 min, [6]-shogaol 7.8 to 2000 μM. The method, then:
To estimate kinetic parameters of metabolism of [6]-shogoal to major product M6 in liver microsomes from human and other species, the incubation conditions were optimized to ensure that formation rate of M6 was in the linear range in relation to incubation time and protein concentration. [6]-Shogaol (7.81, 15.63, 31.25, 62.5, 125, 250, 500, 1000, and 2000 μM) was incubated with liver microsomes from mouse (MLM), rat (RLM), dog (DLM), monkey (CyLM), and human (HLM) (0.1 mg/mL each, respectively) for 30 minutes. All incubations were performed in triplicate. The apparent Km and Vmax values were calculated from analysis of experimental data according to the Michaelis-Menten equation, and the results were graphically represented (for HLM) by an Eadie-Hofstee plot. Kinetic constants were reported as the value+/−S.E. of the parameter estimate.
(Liver microsomes are a subcellular fraction often used to study metabolism.)

The test system of series [3] is human colon cancer cells HCT-116. Kind of series: MTT growth inhibition by M14 and M15 (Part 3). It is filed as cell-based. Conditions: HCT-116, 24 hours, 0 to 80 μM; read-out: IC50 (cell viability, MTT). The method, then:
(§1) Cell growth inhibition was determined by a MTT colorimetric assay. […] The reading reflected the number of viable cells and was expressed as a percentage of viable cells in the control. Both HCT-116 and H-1299 cells were cultured in McCoy's 5A medium. All of the above media were supplemented with 10% fetal bovine serum, 1% penicillin/streptomycin, and 1% glutamine, and the cells were kept in a 37° C. incubator with 95% humidity and 5% CO2.

The subject of series [4] is human lung cancer cells H-1299. The series is described as follows: MTT growth inhibition by M14 and M15 (Part 3). It is filed as cell-based. Conditions: H-1299, 24 hours, 0 to 80 μM; read-out: IC50 (cell viability, MTT). The method, then: as §1
The subject of series [5] is H-1299 human lung cancer cells. Kind of series: MTT growth inhibition of human cancer cells, 24 h (Part 1). It is filed as cell-based. The settings on record: H-1299, 24 h, 0 to 80 μM. On the procedure:
(§2) The reading reflected the number of viable cells and was expressed as a percentage of viable cells in the control. Both HCT-116 and H-1299 cells were cultured in McCoy's 5A medium. All of the above media were supplemented with 10% fetal bovine serum, 1% penicillin/streptomycin, and 1% glutamine, and the cells were kept in a 37° C. incubator with 95% humidity and 5% CO2.

In series [6] the test system is HCT-116 human colon cancer cells. Described as above. The settings on record: HCT-116, 24 h, 0 to 80 μM. It is filed as cell-based. On the procedure:
as §2

In series [7] the test system is HCT-116, HT-29, H-1299, and CL-13 cancer cell lines. The series is described as follows: Metabolism of [6]-shogaol in cancer cells. It is filed as in vitro ADME. The settings on record: 10 μM, HCT-116, HT-29, H-1299, CL-13, up to 24 h. The method, then: Cells (1.0×10^6) were plated in six-well culture plates and were allowed to attach for 24 h at 37° C. in 5% CO2 incubator. [6]-Shogaol [in dimethyl sulfoxide (DMSO)] was added to McCoy's 5A medium (containing 10% fetal bovine serum, 1% penicillin/streptomycin, and 1% glutamine) to reach a final concentration of (10 μM) and was incubated with different cancer cell lines (HCT-116, HT-29, H-1299, and CL-13). At different time points (0, 30 min, 1, 2, 4, 6, 8, and 24 h), 190-μl samples of supernatant were taken and transferred to vials containing (10 μl) of 0.2% ascorbic acid to stabilize [6]-shogaol and its metabolites. The metabolites were extracted from media by addition of equal volume of acetonitrile and centrifugation, in which the supernatant was harvested. The samples were then diluted 5-fold in acetonitrile and were analyzed by HPLC ECD.

In series [8] the test system is human colon cancer cells HCT-116. Kind of series: Cell Death Detection ELISA apoptosis induction (Part 3). It is filed as cell-based. Conditions: HCT-116, 10 μM, 24 hours. The method, then:
(§3) Human colon cancer cells HCT-116 and human lung cancer cells H-1299 were plated in 96-well plates at a density of 5000 cells/well and allowed to attach overnight at 37° C. M14, M15, or [6]-shogaol in DMSO, or DMSO control, diluted in media, were added to cells and incubated for an additional 24 hours at 37° C. After 24 hours, media containing compound was removed and cells were lysed in their respective wells with reagents from a Cell Death Detection ELISA^PLUS kit from Roche Applied Science (Mannheim, Germany). Samples were harvested after cell lysates were spun down at 300 g for 10 minutes. To streptavidin coated microplates, 20 μL samples were added, and mixed with 80 μL Immunoreagent, which consisted of anti-histone-biotin, and anti-DNA-POD, and incubated with gentle shaking for 2 hours at room temperature. After incubation, Immunoreagent was removed and samples were washed 3 times with 250 μL incubation buffer. Substrate solution, ABTS, was added to each well and color was developed for 15 minutes before stopping the reaction with ABTS stop solution and reading absorbance on a microplate reader at 430 nm. Experiments were performed in triplicate and the average is given in comparison to DMSO control with standard deviation.
Background: ELISA stands for enzyme-linked immunosorbent assay.

Series [9] concerns human lung cancer cells H-1299. Described as above. It is filed as cell-based. Conditions: H-1299, 10 μM, 24 hours. On the procedure: as §3

SMILES strings stand for the structures.

Consider `CCCCCC(CC(=O)CCc1ccc(O)c(OC)c1)SC[C@H](N)C(=O)O` (stereo partly shown) [M2, 5-cysteinyl-[6]-shogaol], for which, in series [1], the ROS induction result is listed as “greater than 2 fold”.
Broadly, the Km is the substrate concentration at which the rate is half of its maximum. What is called IC50 is the concentration at which inhibition is half-maximal. Regarding `CCCCC/C=C/C(=O)CCc1ccc(O)c(OC)c1` [[6]-shogaol, reference compound], in series [2], the “Vmax of M6 formation” value is recorded as 10.82+/−0.47 nanomoles per minute per milli. In addition, the Km in [2] (read-out: Km of M6 formation) is 45.6 µM. Besides, the concentration for half-maximal inhibition (IC50) was 19.9 µM in [3], 17.3 µM in [4], 16.9 µM in [5] and 18.7 µM in series [6]. The “metabolism in cancer cell lines” value in series [7] was “extensively metabolized”. For the same compound, the “induction of apoptosis compared to DMSO control” value is recorded as 1 fold in [8] and about 2 fold in [9].
